From US11364229B2, “Triple combination formulations for antiemetic therapy” (LEIUTIS PHARMACEUTICALS PVT, LTD, priority 2017, dated 2022)

Test: Effect of Meglumine on solubility (stressed at 60° C. for 24 hours, filtered)
Type: physicochemical
Settings: Arginine+Aspartic acid buffer system
Method: The samples were stressed at 60° C. for 24 hours and were analyzed after filtration.

CNC[C@H](O)[C@@H](O)[C@H](O)[C@H](O)CO [meglumine]
effect on solubility of Aprepitant in the buffer system: improves the solubility of Aprepitant
